Measured values taken from US11572508B2, “Non-linear surfactant” (Powdermet, Inc., priority 2018, dated 2023).

Legend:
[1] = pH-controlled solubility and rock-face adsorption of isoelectric surfactant; format: physicochemical
Text: An example of an isoelectric non-linear molecular surfactant is a modified rigid ring structure with a zwitterionic to control solubility and surface activity. Molecular surfactant is defined as a group of atoms bonded together, representing the smallest fundamental unit of a chemical compound. In one non-limiting descriptive example, cholic acid is bound to a zwitterionic bi-functional compound, such as threonine. One (1) equivalent of cholic acid is suspended in an aprotic polar solvent, tetrahydrofuran with the addition of a base catalysis, pyridine. The primed rigid ring moiety structure is titrated with one (1) to three (3) equivalents of a zwitterionic coupling agent, and/or silane threonine, in an aprotic polar solvent. Purified product has applications in surface modification chemistry across materials and production markets. One non-limiting identified application is the oil and gas industry's unconventional resource collections through improving production recovery by controlling the rock wettability and reducing the translation motion energy through rock porosity and fractures. The zwitterionic nature of the isoelectric non-linear molecular surfactant enables the production recovery increase by allowing the production team to control when the surfactant becomes insoluble and favors surface adsorption to the formation's porous and fracture surface. […]

[2] = emulsion suspension of liquid epoxy resin: particle size dispersion, suspension stability, pumping through sand packs; format: physicochemical; details: 71 mM surfactant
Text: The suspension was maintained for up to 1 month unchanged.

## CC(O)C(NC(=O)CCC(C)C1CCC2C3C(O)CC4CC(O)CCC4(C)C3CC(O)C12C)C(=O)O (stereo not shown)
[1]; formation rock face
  pH at which surfactant is triggered to adsorb to the rock face: 5.6
[1]; pumping solutions
  pH at which surfactant is soluble in pumping solutions: below 5.5

## C[C@H](CCC(=O)O)[C@H]1CC[C@H]2[C@@H]3[C@H](O)C[C@@H]4C[C@H](O)CC[C@]4(C)[C@H]3C[C@H](O)[C@]12C [3α,7α,12α-trihydroxy-5β-cholan-24-oic acid]
[2]; 23 wt. % solids epoxy resin suspension
  time suspension was maintained unchanged: up to 1 month
[2]; 23 wt. % solids suspension of bisphenol A/epichlorohydrin-derived liquid epoxy resin
  particle size dispersion D50 of nanoemulsion: 450 nm
